Measured values published in patent US5871779A, “Treatment of arthropathies with vanadate compounds or analogues thereof” (Mount Sinai Hospital Corporation, priority 1996, dated 1999).
pIC50: −log10 of the molar value. Several values for one entry are separate records, joined by “and”; a condition that tells them apart may be missing. Equal entries are not always repeated.

Tests used:
fos = fos / c-fos mRNA expression in chondrocytes (Northern blot); format: cell-based, bovine; details: 100 μM
In short: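 Bovine articular chondrocytes incubated 1 h with IL-1, PMA or AA (3 μM), or treated with IL 1 ± DPI, or with H2O2 for 30, 60 and 90 min. Total RNA run on formaldehyde agarose gels and probed by Northern blot with c-fos, c-jun or collagenase cDNA.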

MDAY-D2 cells = test: viability of MDAY-D2 cells; format: cell-based, mouse; details: 0-50 μM, 48 hours
Protocol: Fos and jun activity are also required for cellular proliferation in many tumor cell lines. Accordingly, the effect of orthovanadate on adherent cells and cell suspensions were examined. MDAY-D2 (a mouse lymphoid cell line grown in suspension) and HTB14 cells (an adherent human primary astrocytoma cell line) were incubated in media containing 0-50 μM orthovanadate for 48 hours. The cells were harvested and the number of viable cells determined.
Three different forms of vanadyl compounds were examined for their effect on viability of cancer cell lines. MDAY-D2 cells were incubated in media containing 0-50 μM orthovanadate, vanadyl sulphate, or vanadyl hydroperoxide for 48 hours. The cells were harvested and the number of viable cells determined. […] Although there were slight differences in sensitivity, the overall cell death was similar.

MCF7 (WT) = test: MTT cytotoxicity assay, MCF7 (WT); format: cell-based, human; details: MCF7 (WT), 72 hours; read-out: IC50 Value
Protocol: The relative cytotoxicity of various compounds on tumor cell lines was investigated as follows. Cytotoxicity was measured by the MTT microculture tetrazolium colorimetric assay for all cell lines. The relative cytotoxicity of Na3 VO4 and VOSO4 was investigated using the following tumor cell lines: P388(WT) murine leukemia, P388 (ADR) murine leukemia, Lewis murine lung, MCF7 (WT) human breast, […] human lung, K562 human erythroleukemia, A431 human epidermal, LS180 human colon and SK-OV-3 human ovarian. The relative cytotoxicity of doxorubicin, Na3 VO4 and VOSO4 was investigated using the following tumor cell lines: P388(WT) murine leukemia, P388 (ADR) murine leukemia, MCF7(WT) human breast and MCF7 (ADR) human breast. The relative cytotoxicity of BMOV, BEOV and naglivan was investigated using the following tumor cell lines: P388(WT) murine leukemia, P388 (ADR) murine leukemia, Lewis murine lung, H460 human lung, K562 human erythroleukemia, and SK-OV-3 human ovarian.
The cells were plated (number of cells/well was different from cell line to cell depending on the dividing rate) in a 96-well microculture plate 24 hours prior to the delivery of the vanadium compounds. Serial concentrations of solutions of the test compounds (0.05-100 μM) were delivered to the corresponding wells. A blank column (without cells) and a control column (with cells without vanadium) were left. The cells were incubated for 72 hours continuously. An MTT solution was added to each well after this incubation period and the cells were incubated for 4 more hours for the completion of the dyeing process. The medium was removed find DMSO was added to each well. The absorbance of each well was read with a Titertek Multiskan (310C) spectrophotometer at 570 nm. The percentage of the absorbance of each vanadium concentration relative to the control calculated and the value of the 50% growth inhibition concentration (IC50) was obtained from the % control versus concentration plot. Each assay was repeated three times and the reported IC50 values were the mean of these three runs.

stromelysin = test: synovial stromelysin expression in arthritic rats (Northern blot); format: in vivo, rat; details: BMOV-treated (with NAC) vs control, Day 18
Protocol: Collagenase, stromelysin, and IL-1 expression were quantitated in each group of rats. Selected rats in each group were sacrificed on Day 18 post arthritis onset to measure collagenase, stromelysin, and IL-1 expression via the Northern Blot. Synovial biopsies were pooled and homogenized in the presence of RNASTAT-60 (Tel Test). Total RNA was isolated following the manufacturer's instructions, washed in 70% ethanol, and dissolved in 30 μl RNA loading buffer (Sigma) containing ethidium bromide. The RNA was electrophoresed on a 1% agarose formaldehyde gel and transferred to 0.45 μm nylon filter membrane (Magna NT, MSL). The blot was prehybridised in 50% formamide, 5×SSPE, 5×dendhardts, 1% SDS, 200 μg/ml ssDNA and 50 μg/ml tRNA. The rat collagenase cDNA (bp. 1-550 of locus RATCOL genbank accession M60616), rat stromelysin (ATCC, Rockville, Md.), or rat […] (genbank accession D00403) were labeled by random primed incorporation of ^32 P-dATP (Random Primed Labeling Kit, Boerhinger Manheim). After overnight hybridization at 42° C. overnight, the blot was washed in 1×SSPE at 37° C. and exposed to Kodak X-Ornat AP film for 24 hours at -70° C. with an intensifying screen. The blot was stripped with 50% formamide in 2×SSPE, checked for residual counts and reprobed. The resulting autoradiographs were digitized and analyzed with NIH image software and normalized for RNA loading.

MDAY-D2 tumor = test: BMOV loaded microspheres on tumor growth (Example 19); format: in vivo, mice; details: BMOV solution
Protocol: The effect of slow releasing microspheres loaded with 20% BNOV on tumor growth in mice was investigated as follows.
On day 6 the mice were divided into 6 groups as follows: group 1, empty control; group 3, tumor control; group 3, […]; group 4, injected IP with 20 mg palla beads containing 5 mg of BMOV; group 5, injected IP with 10 mg of BMOV beads on day 6 and day 9 respectively and; group 6, injected intramuscularly with 10 mg of BMOV beads on day 6 and day 9. On day 16, the mice were sacrificed and tumors were dissected.

Compound: [Na+].[Na+].[Na+].[O]=[V]([O-])([O-])[O-] [orthovanadate, sodium orthovanadate]
- inhibition of IL 1, PMA and AA induced c-fos expression (fos): completely inhibited
- toxicity to MDAY-D2 cells (MDAY-D2 cells): toxic
- killing of MDAY-D2 cells (MDAY-D2 cells; three forms compared): equally effective
- pIC50 (MCF7 (WT)): 5.07

Compound: Cc1occc(=O)c1[O-].Cc1occc(=O)c1[O-].[O]=[V+2] [BMOV, bis(methylmaltolato) oxovanadium (IV)]
- percent inhibition of stromelysin gene expression (stromelysin): 58%
- Tumour weight, Average (MDAY-D2 tumor): 0.15
- Tumour weight (MDAY-D2 tumor; individual mice): 0.4 and 0.12 and 0.07 and 0.04
